Columns and labels:
[1] = tested on: HepG2; test: drug sensitivity score (DSS) for viability; higher = more toxic; extreme values may be limits of the assay; settings: 72 h
[2] = tested on: Caco-2; test: as above; settings: 72 h
[3] = tested on: Calu-3; test: as above; settings: 72 h
[4] = tested on: Vero E6; test: as above; settings: 72 h
[5] = tested on: U2OS; test: as above; settings: 72 h
[6] = tested on: A549-ACE2 infected with SARS-CoV-2; test: morphology score (similarity to uninfected cells); higher = more like uninfected cells; settings: 24 h
[7] = tested on: A549-ACE2 infected with SARS-CoV-2; test: SARS-CoV-2 infection rate relative to DMSO; higher = more infection; settings: 24 h
[8] = tested on: HepG2; test: relative viability EC50 (midpoint between 100% and the lowest measured viability); higher = less toxic; settings: 72 h
[9] = tested on: Caco-2; test: as above; settings: 72 h
[10] = tested on: Calu-3; test: as above; settings: 72 h
[11] = tested on: Vero E6; test: as above; settings: 72 h
[12] = tested on: U2OS; test: as above; settings: 72 h
[13] = tested on: A549-ACE2 infected with SARS-CoV-2; test: cell count relative to DMSO; higher = less toxic; settings: 24 h
[14] = tested on: HepG2; test: cell viability relative to DMSO; higher = less toxic; settings: 72 h
[15] = tested on: Caco-2; test: as above; settings: 72 h
[16] = tested on: Calu-3; test: as above; settings: 72 h
[17] = tested on: Vero E6; test: as above; settings: 72 h
[18] = tested on: U2OS; test: as above; settings: 72 h

CC(C)C[C@H](NC(=O)[C@H](Cc1ccccc1)NC(=O)c1cnccn1)B(O)O [bortezomib]
Settings	drug sensitivity score	relative viability EC50 [µM]
[1]	35.9	–
[2]	38.6	–
[3]	38.3	–
[4]	35.2	–
[5]	35.5	–
[8]	–	0.0116
[9]	–	0.0053
[10]	–	0.0064
[11]	–	0.0132
[12]	–	0.0126

Settings	SARS-CoV-2 infection rate, [7] [%]	cell count, [13] [%]	cell viability, [14] [%]	cell viability, [15] [%]	cell viability, [16] [%]	cell viability, [17] [%]	cell viability, [18] [%]	morphology score, [6]
1 nM	–	–	122	104	103	111	104	–
10 nM	–	–	59.1	20.1	26.4	66.4	63.9	–
100 nM	–	–	1.8	4.1	4.4	3	-0.1	–
0.3 µM	45	57	–	–	–	–	–	0.26
1000 nM	–	–	-0.2	5.9	5	0.2	-0.4	–
3 µM	21	30	–	–	–	–	–	0.33
10 µM	16	27	–	–	–	–	–	0.29
10000 nM	–	–	-0.3	6.2	2.4	0.1	-0.4	–
30 µM	23	24	–	–	–	–	–	0.23

CCCCCCCCCCOc1cc2c(O)c(C(=O)OCC)cnc2cc1OCC [decoquinate]
Settings	drug sensitivity score	relative viability EC50 [µM]
[1]	0	–
[2]	0	–
[3]	0	–
[4]	0	–
[5]	0	–
[8]	–	> 10
[9]	–	> 10
[10]	–	> 10
[11]	–	> 10
[12]	–	> 10

cell viability [%]
Settings	[14]	[15]	[16]	[17]	[18]
1 nM	95.9	101	99.8	102	100
10 nM	103	92.6	107	103	99.8
100 nM	98.9	93.3	106	105	99
1000 nM	107	89.4	98.2	96.7	99.6
10000 nM	96.2	96.6	105	103	100

C=CC(=O)Nc1cccc(Oc2nc(Nc3ccc(N4CCN(C)CC4)cc3)ncc2Cl)c1 [WZ-3146]
Settings	drug sensitivity score	relative viability EC50 [µM]
[1]	6.7	–
[2]	8.3	–
[3]	13.9	–
[4]	10.3	–
[5]	9.7	–
[8]	–	1.16
[9]	–	1.56
[10]	–	0.539
[11]	–	1.11
[12]	–	1.46

cell viability [%]
Settings	[14]	[15]	[16]	[17]	[18]
1 nM	108	90.7	95.9	104	97.6
10 nM	100	100	89.9	99.3	100
100 nM	109	99.3	86.4	106	95.5
1000 nM	75	78.3	36.9	59.9	72.1
10000 nM	38.7	11.6	2.3	7.8	0.2

Source: the supplement of paper PMC13380429
